In patent US4950602A, “Inhibition of lactate production by pyruvate adducts” (Cornell Research Foundation, Inc., priority 1987, dated 1990):
Like-named read-outs stand apart in the source and are kept apart here.

Legend:
lactate dehydrogenase = experiment: Reactive α-keto and α-hydroxy acids as inhibitors of lactate dehydrogenase; type: biochemical
Protocol: (§1) Each of the enzymes was assayed by procedures in which change of absorbance at 340 nm due to NADH was followed essentially as described by Bergmeyer (1974, Methods of Enzymatic Analysis, 2nd Eng. Ed., Verlag Chemie Weinheim Academic Press, N.Y.) with the following exceptions. Phosphofructokinase was assayed according to the method of Lai et al (1984, J. Neurochem., 42:438-446). NAD^+ -linked isocitrate dehydrogenase was assayed as described by Lai and Clark (1976, Biochem. J., 154:423-432). Pyruvate and α-ketoglutarate dehydrogenase complexes were respectively assayed according to the methods of Lai and Sheu (1985, J. Neurochem., 45:1861-1868) and Lai and Cooper (1986) (J. Neurochem, 47:1376-1386).

[1] = biological target: horse liver alcohol dehydrogenase (Equus caballus, UniProt P00327); details: concentration that inhibited chicken H4 lactate dehydrogenase by 59%; Everse et al 1971; cited from earlier work
[2] = biological target: yeast alcohol dehydrogenase (Saccharomyces cerevisiae, UniProt P00330); details: concentration that inhibited chicken H4 lactate dehydrogenase by 59%; Everse et al 1971; cited from earlier work
[3] = biological target: chicken H4 lactate dehydrogenase (Gallus gallus, UniProt P00337); details: concentration not given; Everse et al 1971; cited from earlier work
[4] = biological target: T1, beef heart lactate dehydrogenase (Bos taurus, UniProt Q5E9B1); experiment: Inhibition of beef heart lactate dehydrogenase (NADH absorbance at 340 nm); type: biochemical, bovine; details: for Relative Activity (%) Beef Heart: 0.24 mM pyruvate, 0.1 mM NADH, pH 7.2, 25° C.
T1 construct: purchased Worthington Biochemical Corporation (Freehold, N.J.); host or cells: beef heart
Text: Enzymes and enzyme assays. Rabbit muscle glyceraldehyde-3-phosphate dehydrogenase (80 U/mg: ammonium sulfate suspension), rabbit muscle glycerol-3-phosphate dehydrogenase (40 U/mg; ammonium sulfate suspension),beef liver glutamate dehydrogenase (120 U/mg: in 50% glycerol), mitochondrial pig heart malate dehydrogenase (1100 U/mg; in 50% glycerol) and yeast hexokinase (140 U/mg; ammonium sulfate suspension) were purchased from Boehringer Mannheim Corp. (Indianapolis). Beef heart lactate dehydrogenase (280 U/mg) was purchased from Worthington Biochemical Corporation (Freehold, N.J.). Porcine heart L-alanine aminotransferase (130 U/mg), rabbit muscle phosphofructokinase (140 U/mg; ammonium sulfate suspension), bovine heart α-ketoglutarate (8 U/mg) and pyruvate (5 U/mg) dehydrogenase complexes, sodium pyruvate, L-methionine-SR-sulfoximine, DL-vinylglycine, NAD^+, NADH and NAD^+ analogues (3-acetylpyridine, thionicotinamide, and 3-pyridinealdehyde adenine dinucleotides) were purchased from Sigma Chemical Company (St. Louis, Mo.).
as §1
(§2) The reaction mixture (1 ml) contained 0.24 mM sodium pyruvate, 0.1 mM
(§3) NADH, 100 mM potassium phosphate buffer (pH 7.2) and either purified
(§4) bovine heart lactate dehydrogenase (0.01 U) or rat brain homogenate
(§5) containing ~0.02 U of lactate dehydrogenase activity; 25° C.
(§6) Since APADpyruvate adduct and RAP have a tendency to revert to pyruvate
(§7) they were added to the reaction mixture just prior to addition of enzyme.
(§8) Because the kinetics obtained with tightbinding inhibitors depends on the
(§9) order of addition of substrates and inhibitors the enzyme was always adde
(§10) last. Each value is the average of at least 3 determinations. Each of the […]

[5] = biological target: pig heart mitochondrial malate dehydrogenase (Sus scrofa, UniProt P00346); details: concentration that inhibited chicken H4 lactate dehydrogenase by 59%; Everse et al 1971; cited from earlier work
[6] = cited from earlier work; for stability in solution: Burgner and Ray 1984
[7] = test system: rat brain lactate dehydrogenase; experiment: Inhibition of rat brain lactate dehydrogenase (rat brain homogenate); type: biochemical; details: rat brain homogenate, 0.24 mM pyruvate, 0.1 mM NADH, pH 7.2, 25° C.
Protocol: as §1, §2, §3, §4, §5, §6, §7, §8, §9, §10

[8] = test system: dogfish liver glutamate dehydrogenase; details: concentration that inhibited chicken H4 lactate dehydrogenase by 59%; Everse et al 1971; cited from earlier work
[9] = biological target: lactate dehydrogenase (dogfish enzyme) (Squalus acanthias, UniProt P00341); details: Burgner and Ray 1984; cited from earlier work
Sequence of lactate dehydrogenase (dogfish enzyme) (P00341 whole entry): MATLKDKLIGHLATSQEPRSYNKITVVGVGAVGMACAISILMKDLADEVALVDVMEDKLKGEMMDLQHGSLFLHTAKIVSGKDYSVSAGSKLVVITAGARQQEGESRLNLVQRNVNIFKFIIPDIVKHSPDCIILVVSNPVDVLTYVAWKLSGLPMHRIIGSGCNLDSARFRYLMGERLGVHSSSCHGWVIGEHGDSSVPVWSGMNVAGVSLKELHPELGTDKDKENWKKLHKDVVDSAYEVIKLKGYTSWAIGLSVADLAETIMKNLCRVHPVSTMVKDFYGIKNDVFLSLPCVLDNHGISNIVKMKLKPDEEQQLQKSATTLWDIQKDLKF

T1 sequence (Q5E9B1 whole entry): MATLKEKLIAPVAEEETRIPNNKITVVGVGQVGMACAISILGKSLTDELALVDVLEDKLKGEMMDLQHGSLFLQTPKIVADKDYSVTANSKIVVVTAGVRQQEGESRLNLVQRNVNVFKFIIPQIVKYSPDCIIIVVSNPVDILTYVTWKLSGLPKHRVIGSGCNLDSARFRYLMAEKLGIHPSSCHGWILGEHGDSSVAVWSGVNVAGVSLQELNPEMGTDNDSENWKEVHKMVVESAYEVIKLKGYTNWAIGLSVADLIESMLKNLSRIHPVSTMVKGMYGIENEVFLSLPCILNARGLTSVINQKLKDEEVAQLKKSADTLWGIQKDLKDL
Sequence of chicken H4 lactate dehydrogenase (P00337 whole entry): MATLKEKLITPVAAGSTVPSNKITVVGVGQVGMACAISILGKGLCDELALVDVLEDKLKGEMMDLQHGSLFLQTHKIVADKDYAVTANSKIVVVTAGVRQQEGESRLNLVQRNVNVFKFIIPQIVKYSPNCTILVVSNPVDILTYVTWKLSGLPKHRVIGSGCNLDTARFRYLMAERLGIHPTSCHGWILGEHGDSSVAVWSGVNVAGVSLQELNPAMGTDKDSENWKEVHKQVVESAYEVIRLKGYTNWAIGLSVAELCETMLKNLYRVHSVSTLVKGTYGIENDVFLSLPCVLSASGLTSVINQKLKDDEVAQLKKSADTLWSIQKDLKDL
Sequence of pig heart mitochondrial malate dehydrogenase (P00346 25-338): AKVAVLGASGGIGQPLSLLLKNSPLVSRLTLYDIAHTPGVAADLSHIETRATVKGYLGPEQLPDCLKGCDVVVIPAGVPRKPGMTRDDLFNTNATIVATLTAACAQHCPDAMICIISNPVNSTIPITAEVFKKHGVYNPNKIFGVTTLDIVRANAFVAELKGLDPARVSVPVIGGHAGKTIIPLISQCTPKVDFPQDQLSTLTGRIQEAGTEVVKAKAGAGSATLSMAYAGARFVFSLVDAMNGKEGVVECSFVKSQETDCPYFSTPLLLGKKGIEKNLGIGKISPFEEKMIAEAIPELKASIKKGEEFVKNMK
Sequence of yeast alcohol dehydrogenase (P00330 whole entry): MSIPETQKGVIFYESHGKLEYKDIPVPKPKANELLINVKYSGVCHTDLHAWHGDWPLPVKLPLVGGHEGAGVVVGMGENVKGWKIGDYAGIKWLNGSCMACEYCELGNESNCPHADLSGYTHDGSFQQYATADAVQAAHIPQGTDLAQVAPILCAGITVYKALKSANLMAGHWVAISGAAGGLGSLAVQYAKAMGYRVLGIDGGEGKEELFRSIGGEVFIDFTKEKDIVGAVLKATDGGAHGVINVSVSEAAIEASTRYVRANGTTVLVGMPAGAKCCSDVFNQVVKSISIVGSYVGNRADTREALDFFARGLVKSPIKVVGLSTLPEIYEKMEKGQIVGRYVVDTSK
Sequence of horse liver alcohol dehydrogenase (P00327 whole entry): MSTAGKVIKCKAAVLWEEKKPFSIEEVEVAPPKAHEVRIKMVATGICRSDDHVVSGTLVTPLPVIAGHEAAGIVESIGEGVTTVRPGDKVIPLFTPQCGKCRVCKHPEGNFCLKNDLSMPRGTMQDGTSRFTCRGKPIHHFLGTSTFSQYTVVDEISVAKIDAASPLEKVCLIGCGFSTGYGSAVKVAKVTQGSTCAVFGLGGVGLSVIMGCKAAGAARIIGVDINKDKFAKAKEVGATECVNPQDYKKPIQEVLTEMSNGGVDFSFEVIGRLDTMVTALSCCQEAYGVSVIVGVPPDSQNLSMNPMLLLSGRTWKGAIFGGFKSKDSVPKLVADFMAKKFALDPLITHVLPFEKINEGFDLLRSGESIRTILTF

CC=CC(=O)C(=O)O [2-oxo-3-pentenoic acid]
action on lactate dehydrogenase (lactate dehydrogenase): substrates, not inhibitors

Vinylglycolate
action on lactate dehydrogenase (lactate dehydrogenase): substrates, not inhibitors

NC(=O)C1=CN([C@@H]2O[C@H](COP(=O)(O)OP(=O)(O)OC[C@H]3O[C@@H](n4cnc5c(N)ncnc54)[C@H](O)[C@@H]3O)[C@@H](O)[C@H]2O)C=CC1CC(=O)C(=O)O (stereo partly drawn) [NAD-pyruvate adduct]
effect on horse liver alcohol dehydrogenase [1]: little effect
effect on yeast alcohol dehydrogenase [2]: little effect
inhibition of chicken H4 lactate dehydrogenase [3]: 59%
Relative Activity (%) Beef Heart ([4]; additive 34 μM): 90%
Relative Activity (%) Beef Heart ([4]; additive 68 μM): 62%
Relative Activity (%) Beef Heart ([4]; additive 136 μM): 38%
Ki ([4]; calculated from Table 1 data with Km for NADH 2.5 μM, standard equation for a competitive inhibitor, read-out: Ki): 2.6 µM
effect on pig heart mitochondrial malate dehydrogenase [5]: little effect
stability (loss of absorbance at 340 nm) ([6]; Everse et al 1971): relatively unstable and easily oxidized
Relative Activity (%) Rat Brain ([7]; additive 34 μM): 48%
effect on dogfish liver glutamate dehydrogenase [8]: little effect

NC(=S)C1=CN([C@@H]2O[C@H](COP(=O)(O)OP(=O)(O)OC[C@H]3O[C@@H](n4cnc5c(N)ncnc54)[C@H](O)[C@@H]3O)[C@@H](O)[C@H]2O)C=CC1CC(=O)C(=O)O (stereo partly drawn) [Thio analogue]
Relative Activity (%) Beef Heart ([4]; additive 0.7 μM): 38%
Relative Activity (%) Beef Heart ([4]; additive 1.4 μM): 17%
Relative Activity (%) Rat Brain ([7]; additive 1.4 μM): 33%

CC(=O)C1=CN([C@@H]2O[C@H](COP(=O)(O)OP(=O)(O)OC[C@H]3O[C@@H](n4cnc5c(N)ncnc54)[C@H](O)[C@@H]3O)[C@@H](O)[C@H]2O)C=CC1CC(=O)C(=O)O (stereo partly drawn) [Acetyl analogue, reference compound]
Ki [9]: 0.0001 µM
Relative Activity (%) Beef Heart ([4]; additive 0.08 μM): 90%
Relative Activity (%) Beef Heart ([4]; additive 0.42 μM): 60%
Relative Activity (%) Beef Heart ([4]; additive 0.84 μM): 21%
stability in solution ([6]; pH 7.0): reverts to free pyruvate and APAD
stability in solution ([6]; pH 11.0): relatively stable
Relative Activity (%) Rat Brain ([7]; additive 0.42 μM): 61%
Relative Activity (%) Rat Brain ([7]; additive 0.84 μM): 30%
